Source: PMC5965259 (Journal of medicinal chemistry, 2018)

The molecules below were run on prozyme protein levels in T. brucei cells (assay: Western blot analysis of prozyme levels in treated T. brucei cells). Conditions: 24 h treatment at 1.5 × EC50.
Format: cell-based

With `Cc1cc(Nc2cc(Cl)cc(Cl)c2)ncn1` [Compound 23, N-(3,5-Dichlorophenyl)-6-methylpyrimidin-4-amine] the “prozyme protein level vs vehicle-only control” value was “vehicle-only levels of the prozyme protein”.
For `Nc1nccc(Nc2cc(Cl)cc(Cl)c2)n1` [Compound 8], the “prozyme protein level vs vehicle-only control” value was “induced prozyme above the vehicle-only control levels”.
For `Nc1nc(Cl)cc(Nc2cc(Cl)cc(Cl)c2)n1` [Compound 13], the “prozyme protein level vs vehicle-only control” value was “vehicle-only levels of the prozyme protein”.

Each molecule was assayed on T. brucei AdoMetDC/prozyme (assay: biochemical). Conditions: pH 7.2; human vs T. brucei AdoMetDC.

In the case of `Cc1cc(Nc2cc(Br)cc(Br)c2)nc(N)n1` [Compound 44, N^4-(3,5-Dibromophenyl)-6-methylpyrimidine-2,4-diamine], the “selectivity ratio (HsIC50/TbIC50)” value is reported as “exceeded 100”.

These molecules were tested against T1, T. brucei AdoMetDC/prozyme (Trypanosoma brucei brucei, UniProt P50244) (assay: biochemical). Conditions: Tb IC50, pH 7.2; mean, triplicate, 95% CI in parentheses.
T1 sequence (P50244 86-370 limits assumed): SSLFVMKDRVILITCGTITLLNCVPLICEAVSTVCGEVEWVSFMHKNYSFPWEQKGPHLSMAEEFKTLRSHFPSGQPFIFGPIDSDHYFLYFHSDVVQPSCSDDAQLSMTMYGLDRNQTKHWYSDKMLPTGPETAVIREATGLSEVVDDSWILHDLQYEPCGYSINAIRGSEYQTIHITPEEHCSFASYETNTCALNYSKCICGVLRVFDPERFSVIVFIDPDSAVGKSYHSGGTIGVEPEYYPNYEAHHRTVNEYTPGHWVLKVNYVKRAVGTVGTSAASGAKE

With `Nc1cc(Nc2cc(Cl)cc(Cl)c2)ccn1` [Compound 21, N^4-(3,5-Dichlorophenyl)pyridine-2,4-diamine] the IC50 was 29 µM.

These molecules were tested on bloodstream form T. brucei Lister 427 (assay: ATP–bioluminescence-based bloodstream form T. brucei cell viability assay). Conditions: Trypanosoma brucei, 48 h, read-out: Tb427 EC50.

Going from `Cc1cc(Nc2cc(Cl)cc(Cl)c2)ncn1` [Compound 23, N-(3,5-Dichlorophenyl)-6-methylpyrimidin-4-amine] to `CNc1nc(C)cc(Nc2cc(Cl)cc(Cl)c2)n1` [Compound 24, N^4-(3,5-Dichlorophenyl)-N^2,6-dimethylpyrimidine-2,4-diamine], the EC50 falls from 27 µM to 2.7 µM (10-fold). The second is the more potent here.

Compared with `Nc1nccc(Nc2cc(Cl)cc(Cl)c2)n1` [Compound 8], `Nc1cccc(Nc2cc(Cl)cc(Cl)c2)n1` [Compound 17] is 9.7-fold higher in EC50: 9.9 µM for the first, 96 µM for the second.

Compared with `Nc1nc(Cl)cc(Nc2cc(Cl)cc(Cl)c2)n1` [Compound 13], `Cc1cc(Nc2cc(F)cc(Cl)c2)nc(N)n1` [Compound 61, N^4-(3-Chloro-5-fluorophenyl)-6-methylpyrimidine-2,4-diamine] is 1.9-fold higher in EC50: 8.9 µM for the first, 17 µM for the second.

`CC(=O)c1ccc(-c2cc(Cl)cc(Nc3cc(C)nc(N)n3)c2)cc1` [Compound 97, 1-(3′-((2-Amino-6-methylpyrimidin-4-yl)amino)-5′-chloro-[1,1′-biphenyl]-4-yl)ethan-1-one] and `Cc1cc(Nc2cc(Cl)cc(-c3ccc(O)cc3)c2)nc(N)n1` [Compound 98, 3′-((2-Amino-6-methylpyrimidin-4-yl)amino)-5′-chloro-[1,1′-biphenyl]-4-ol] are within 1.5-fold of each other in EC50: 6.7 µM for the first, 9.7 µM for the second.

Going from `COc1cc(Nc2cc(C)nc(N)n2)cc(OC)c1` [Compound 47, N^4-(3,5-Dimethoxyphenyl)-6-methylpyrimidine-2,4-diamine] to `Cc1cc(Nc2cc(Br)cc(OCC(C)C)c2)nc(N)n1` [Compound 43, N^4-(3-Bromo-5-isobutoxyphenyl)-6-methylpyrimidine-2,4-diamine], the EC50 falls from 41 µM to 4.4 µM (9.3-fold).

First: Cc1nc(N)cc(Nc2cc(Cl)cc(Br)c2)n1 [Compound 27, N^4-(3-Bromo-5-chlorophenyl)-2-methylpyrimidine-4,6-diamine]
Second: Cc1cc(Nc2cc(Br)cc(Br)c2)nc(N)n1 [Compound 44, N^4-(3,5-Dibromophenyl)-6-methylpyrimidine-2,4-diamine]
The EC50 of the first is 4.2-fold higher: 20 µM for the first, 4.8 µM for the second.

Going from `Cc1cc(Nc2cc(Cl)c(N3CCOCC3)c(Cl)c2)nc(N)n1` [Compound 70, N^4-(3,5-Dichloro-4-morpholinophenyl)-6-methylpyrimidine-2,4-diamine] to `Cc1cc(Nc2cc(Cl)c(N3CCCCC3)c(Cl)c2)nc(N)n1` [Compound 71, N^4-(3,5-Dichloro-4-(piperidin-1-yl)phenyl)-6-methylpyrimidine-2,4-diamine], the EC50 falls from 18 µM to 2.1 µM (8.6-fold).

First: Cc1cc(Nc2cc(Cl)cc(-c3ccc(-c4ccccc4)cc3)c2)nc(N)n1 [Compound 99, N^4-(5-Chloro-[1,1′:4′,1″-terphenyl]-3-yl)-6-methylpyrimidine-2,4-diamine]
Second: Cc1ccc(-c2cc(Cl)cc(Nc3cc(C)nc(N)n3)c2)cc1 [Compound 94, N^4-(5-Chloro-4′-methyl-[1,1′-biphenyl]-3-yl)-6-methylpyrimidine-2,4-diamine]
The EC50 of the first is 4.7-fold lower: 0.91 µM for the first, 4.3 µM for the second.

`Cc1cc(Nc2cc(Cl)cc(-c3ccc4c(c3)OCO4)c2)nc(N)n1` [Compound 109, N^4-(3-(Benzo[d][1,3]dioxol-5-yl)-5-chlorophenyl)-6-methylpyrimidine-2,4-diamine] and `Cc1cc(Nc2cc(Cl)cc(-c3ccc(Cl)c(Cl)c3)c2)nc(N)n1` [Compound 103, 6-Methyl-N^4-(3′,4′,5-trichloro-[1,1′-biphenyl]-3-yl)pyrimidine-2,4-diamine] are within 1.5-fold of each other in EC50: 2.3 µM for the first, 2.9 µM for the second.

Compared with `Cc1cc(Nc2cc(F)cc(F)c2)nc(N)n1` [Compound 60, N^4-(3,5-Difluorophenyl)-6-methylpyrimidine-2,4-diamine], `Cc1cc(Nc2cc(Br)cc(S(F)(F)(F)(F)F)c2)nc(N)n1` [Compound 37, N^4-(3-Bromo-5-(pentafluoro-λ^6-sulfaneyl)phenyl)-6-methylpyrimidine-2,4-diamine] is 160-fold lower in EC50: 70 µM for the first, 0.45 µM for the second.

First: Cc1cc(Nc2cc(Cl)cc(-c3cc(C(F)(F)F)cc(C(F)(F)F)c3)c2)nc(N)n1 [Compound 106, N^4-(5-Chloro-3′,5′-bis(trifluoromethyl)-[1,1′-biphenyl]-3-yl)-6-methylpyrimidine-2,4-diamine]
Second: Cc1cc(Nc2cc(Cl)cc(-c3ccoc3)c2)nc(N)n1 [Compound 111, N^4-(3-Chloro-5-(furan-3-yl)phenyl)-6-methylpyrimidine-2,4-diamine]
The EC50 of the first is 13-fold lower: 0.53 µM for the first, 7.1 µM for the second. The first is the more potent here.

Going from `Cc1cc(Nc2cc(Cl)cc(-c3cnn(C)c3)c2)nc(N)n1` [Compound 116, N^4-(3-Chloro-5-(1-methyl-1H-pyrazol-4-yl)phenyl)-6-methylpyrimidine-2,4-diamine] to `Cc1cc(Nc2cc(Cl)cc(-c3ccc(Cl)cc3)c2)nc(N)n1` [Compound 92, N^4-(4′,5-Dichloro-[1,1′-biphenyl]-3-yl)-6-methylpyrimidine-2,4-diamine], the EC50 falls from 6.7 µM to 2.2 µM (3-fold).

Compared with `Cc1cc(Nc2cc(Cl)cc(-c3ccc4nonc4c3)c2)nc(N)n1` [Compound 110, N^4-(3-(Benzo[c][1,2,5]oxadiazol-5-yl)-5-chlorophenyl)-6-methylpyrimidine-2,4-diamine], `Cc1cc(Nc2cc(Cl)cc(-c3ccc(C#N)cc3)c2)nc(N)n1` [Compound 96, 3′-((2-Amino-6-methylpyrimidin-4-yl)amino)-5′-chloro-[1,1′-biphenyl]-4-carbonitrile] is 1.8-fold higher in EC50: 0.57 µM for the first, 1 µM for the second. The first is the more potent here.

`C=CCOc1cc(Br)cc(Nc2cc(C)nc(N)n2)c1` [Compound 41, N^4-(3-(Allyloxy)-5-bromophenyl)-6-methylpyrimidine-2,4-diamine] and `Cc1cc(Nc2cc(Cl)c(C)c(Cl)c2)nc(N)n1` [Compound 65, N^4-(3,5-Dichloro-4-methylphenyl)-6-methylpyrimidine-2,4-diamine] are the same in EC50: 4.4 µM for the first, 4.4 µM for the second.

Going from `Cc1cc(Nc2cc(Cl)cc(-c3ccccc3Cl)c2)nc(N)n1` [Compound 101, N^4-(2′,5-Dichloro-[1,1′-biphenyl]-3-yl)-6-methylpyrimidine-2,4-diamine] to `Cc1cc(Nc2cc(Cl)cc(-c3cc4ccccc4s3)c2)nc(N)n1` [Compound 114, N^4-(3-(Benzo[b]thiophen-2-yl)-5-chlorophenyl)-6-methylpyrimidine-2,4-diamine], the EC50 falls from 8.5 µM to 1.6 µM (5.3-fold). The second is the more potent here.

Compared with `Cc1cc(Sc2cc(Cl)cc(Cl)c2)nc(N)n1` [Compound 29, 4-((3,5-Dichlorophenyl)thio)-6-methylpyrimidin-2-amine], `Cc1nc(N)nc(Nc2cc(Cl)cc(Cl)c2)c1C` [Compound 16] is lower in EC50: > 25 µM for the first, 17 µM for the second.

First: Nc1cc(Nc2cc(Cl)cc(Cl)c2)ccn1 [Compound 21, N^4-(3,5-Dichlorophenyl)pyridine-2,4-diamine]
Second: Cc1cc(Nc2cccc(Cl)c2)nc(N)n1 [Compound 55, N^4-(3-Chlorophenyl)-6-methylpyrimidine-2,4-diamine]
The EC50 of the first is 3.8-fold lower: 11 µM for the first, 42 µM for the second. The first is the more potent here.

`Cc1cc(Nc2cc(Cl)c(Cl)c(Cl)c2)nc(N)n1` [Compound 64, 6-Methyl-N^4-(3,4,5-trichlorophenyl)pyrimidine-2,4-diamine] and `Cc1cc(Nc2cc(Cl)c(N(C)C)c(Cl)c2)nc(N)n1` [Compound 69, N^4-(3,5-Dichloro-4-(dimethylamino)phenyl)-6-methylpyrimidine-2,4-diamine] are within 1.5-fold of each other in EC50: 4.5 µM for the first, 5.8 µM for the second.

`CCc1ccc(Nc2cc(C)nc(N)n2)cc1` [Compound 86] and `Cc1cc(Nc2ccc(C(F)(F)F)cc2)nc(N)n1` [Compound 88] are within 1.5-fold of each other in EC50: 19 µM for the first, 15 µM for the second.

Compared with `Cc1cc(Nc2cc(Cl)cc(-c3cc4ccccc4c4ccccc34)c2)nc(N)n1` [Compound 108, N^4-(3-Chloro-5-(phenanthren-9-yl)phenyl)-6-methylpyrimidine-2,4-diamine], `Cc1cc(Nc2ccc(-c3cc(Cl)cc(Cl)c3)cc2)nc(N)n1` [Compound 89, N^4-(3′,5′-Dichloro-[1,1′-biphenyl]-4-yl)-6-methylpyrimidine-2,4-diamine] is 1.8-fold lower in EC50: 1.8 µM for the first, 1 µM for the second.

`Cc1cc(Nc2ccccc2)nc(N)n1` [Compound 59] and `Cc1cc(Nc2ccccc2Br)nc(N)n1` [Compound 79] cannot be ordered by EC50: > 25 µM for the first, > 25 µM for the second.

`Cc1cc(Nc2cc(Cl)c(Oc3ccccc3)c(Cl)c2)nc(N)n1` [Compound 66, N^4-(3,5-Dichloro-4-phenoxyphenyl)-6-methylpyrimidine-2,4-diamine] showed an EC50 of 1.1 µM.
